ChEMBL document CHEMBL3784917, “Recent Progress in Histone Demethylase Inhibitors” (J Med Chem, 2016)
One block for each compound: values may come before it.

Tests used:
[1] = target: T1, Lysine-specific demethylase 3A (Homo sapiens, UniProt Q9Y4C1); assay: Inhibition of KDM3A (unknown origin) preincubated for 15 mins followed by histone substrate addition measured after 1 hr by alphascreen assay
T1 sequence (Q9Y4C1 whole entry): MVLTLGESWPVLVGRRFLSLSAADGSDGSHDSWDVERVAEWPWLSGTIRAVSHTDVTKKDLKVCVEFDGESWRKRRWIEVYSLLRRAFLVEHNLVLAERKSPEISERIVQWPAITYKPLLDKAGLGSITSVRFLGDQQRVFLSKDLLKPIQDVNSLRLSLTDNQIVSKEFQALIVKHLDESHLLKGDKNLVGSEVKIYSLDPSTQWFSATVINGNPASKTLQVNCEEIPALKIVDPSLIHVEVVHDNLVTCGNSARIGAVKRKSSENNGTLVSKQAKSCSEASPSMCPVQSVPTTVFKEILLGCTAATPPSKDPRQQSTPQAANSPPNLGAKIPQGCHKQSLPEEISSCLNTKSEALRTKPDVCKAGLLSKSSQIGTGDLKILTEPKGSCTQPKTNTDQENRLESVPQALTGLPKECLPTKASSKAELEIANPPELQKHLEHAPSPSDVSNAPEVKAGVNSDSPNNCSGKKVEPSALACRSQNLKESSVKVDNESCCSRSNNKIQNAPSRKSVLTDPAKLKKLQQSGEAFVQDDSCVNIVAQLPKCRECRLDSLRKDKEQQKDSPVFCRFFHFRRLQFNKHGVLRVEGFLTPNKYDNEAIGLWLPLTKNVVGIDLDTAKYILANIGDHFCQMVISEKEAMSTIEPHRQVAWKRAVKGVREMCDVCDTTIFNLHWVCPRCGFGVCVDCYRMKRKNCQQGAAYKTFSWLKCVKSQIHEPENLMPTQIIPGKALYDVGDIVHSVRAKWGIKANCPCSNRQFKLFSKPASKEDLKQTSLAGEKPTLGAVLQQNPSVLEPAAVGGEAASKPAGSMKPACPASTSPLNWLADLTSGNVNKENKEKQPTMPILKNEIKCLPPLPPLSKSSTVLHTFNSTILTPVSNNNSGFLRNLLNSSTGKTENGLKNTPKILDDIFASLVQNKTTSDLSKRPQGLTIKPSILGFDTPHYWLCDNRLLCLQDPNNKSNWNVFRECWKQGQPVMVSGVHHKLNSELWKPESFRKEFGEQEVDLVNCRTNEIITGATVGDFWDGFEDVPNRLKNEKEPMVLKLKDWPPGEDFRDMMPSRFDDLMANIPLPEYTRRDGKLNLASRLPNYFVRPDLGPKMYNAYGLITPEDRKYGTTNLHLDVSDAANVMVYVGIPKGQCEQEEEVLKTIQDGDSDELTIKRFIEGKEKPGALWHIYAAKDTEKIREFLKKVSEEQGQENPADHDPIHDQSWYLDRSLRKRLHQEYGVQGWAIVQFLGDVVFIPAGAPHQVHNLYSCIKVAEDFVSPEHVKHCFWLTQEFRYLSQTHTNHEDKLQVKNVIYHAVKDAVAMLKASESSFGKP

[2] = target: T2, Lysine-specific demethylase 2A (Homo sapiens, UniProt Q9Y2K7); assay: Inhibition of KDM2A (unknown origin) preincubated for 15 mins followed by histone substrate addition measured after 1 hr by alphascreen assay
T2 sequence (Q9Y2K7 whole entry): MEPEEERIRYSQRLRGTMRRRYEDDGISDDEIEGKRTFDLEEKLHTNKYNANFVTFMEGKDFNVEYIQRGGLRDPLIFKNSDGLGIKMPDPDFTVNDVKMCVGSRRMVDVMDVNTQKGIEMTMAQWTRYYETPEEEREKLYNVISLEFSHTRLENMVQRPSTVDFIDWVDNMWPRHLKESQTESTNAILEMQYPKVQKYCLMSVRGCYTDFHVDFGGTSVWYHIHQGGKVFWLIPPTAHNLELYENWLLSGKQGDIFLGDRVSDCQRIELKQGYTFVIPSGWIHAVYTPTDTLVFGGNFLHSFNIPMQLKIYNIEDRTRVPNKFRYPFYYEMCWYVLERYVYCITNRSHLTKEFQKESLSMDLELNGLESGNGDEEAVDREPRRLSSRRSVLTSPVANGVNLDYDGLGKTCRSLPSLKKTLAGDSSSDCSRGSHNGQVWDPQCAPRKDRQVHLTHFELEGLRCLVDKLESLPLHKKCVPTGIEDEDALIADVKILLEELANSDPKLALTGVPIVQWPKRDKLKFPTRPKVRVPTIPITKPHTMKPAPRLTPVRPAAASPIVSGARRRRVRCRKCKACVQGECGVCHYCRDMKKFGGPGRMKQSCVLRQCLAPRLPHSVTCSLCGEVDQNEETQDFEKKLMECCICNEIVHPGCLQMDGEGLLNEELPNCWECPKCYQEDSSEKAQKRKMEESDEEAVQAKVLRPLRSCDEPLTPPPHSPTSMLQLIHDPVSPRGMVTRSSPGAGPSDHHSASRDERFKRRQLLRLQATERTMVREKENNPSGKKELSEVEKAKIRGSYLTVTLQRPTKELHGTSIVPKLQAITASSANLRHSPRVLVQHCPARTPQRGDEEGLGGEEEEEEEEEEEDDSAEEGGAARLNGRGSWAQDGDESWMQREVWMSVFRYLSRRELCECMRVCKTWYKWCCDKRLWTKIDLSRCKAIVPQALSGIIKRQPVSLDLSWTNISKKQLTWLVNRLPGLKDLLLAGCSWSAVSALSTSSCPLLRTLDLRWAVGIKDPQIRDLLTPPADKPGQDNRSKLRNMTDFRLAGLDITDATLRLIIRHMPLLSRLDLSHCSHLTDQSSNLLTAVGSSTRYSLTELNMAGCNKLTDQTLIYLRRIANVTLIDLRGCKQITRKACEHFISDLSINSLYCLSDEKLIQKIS

[3] = target: Lysine-specific demethylase 5B (Homo sapiens, UniProt Q9UGL1); assay: Inhibition of KDM5B in human U2OS cells assessed as reduction in demethylation of H3K4me3 after 20 hrs by Hoechst 33342 staining based immunofluorescence assay; format: cell-based
[4] = Antiproliferative activity against human NALM6 cells assessed as reduction in cell viability after 120 hrs by ATPlite assay; format: functional, cell-based; settings: NALM-6, 120 h
[5] = Antiproliferative activity against human BT474 cells assessed as reduction in cell viability after 120 hrs by ATPlite assay; format: functional, cell-based; settings: BT-474, 120 h
[6] = target: T1, Lysine-specific demethylase 3A; assay: Inhibition of KDM3A (unknown origin) after 24 hrs by alphascreen assay

Sequence of Lysine-specific demethylase 5B (Q9UGL1 whole entry): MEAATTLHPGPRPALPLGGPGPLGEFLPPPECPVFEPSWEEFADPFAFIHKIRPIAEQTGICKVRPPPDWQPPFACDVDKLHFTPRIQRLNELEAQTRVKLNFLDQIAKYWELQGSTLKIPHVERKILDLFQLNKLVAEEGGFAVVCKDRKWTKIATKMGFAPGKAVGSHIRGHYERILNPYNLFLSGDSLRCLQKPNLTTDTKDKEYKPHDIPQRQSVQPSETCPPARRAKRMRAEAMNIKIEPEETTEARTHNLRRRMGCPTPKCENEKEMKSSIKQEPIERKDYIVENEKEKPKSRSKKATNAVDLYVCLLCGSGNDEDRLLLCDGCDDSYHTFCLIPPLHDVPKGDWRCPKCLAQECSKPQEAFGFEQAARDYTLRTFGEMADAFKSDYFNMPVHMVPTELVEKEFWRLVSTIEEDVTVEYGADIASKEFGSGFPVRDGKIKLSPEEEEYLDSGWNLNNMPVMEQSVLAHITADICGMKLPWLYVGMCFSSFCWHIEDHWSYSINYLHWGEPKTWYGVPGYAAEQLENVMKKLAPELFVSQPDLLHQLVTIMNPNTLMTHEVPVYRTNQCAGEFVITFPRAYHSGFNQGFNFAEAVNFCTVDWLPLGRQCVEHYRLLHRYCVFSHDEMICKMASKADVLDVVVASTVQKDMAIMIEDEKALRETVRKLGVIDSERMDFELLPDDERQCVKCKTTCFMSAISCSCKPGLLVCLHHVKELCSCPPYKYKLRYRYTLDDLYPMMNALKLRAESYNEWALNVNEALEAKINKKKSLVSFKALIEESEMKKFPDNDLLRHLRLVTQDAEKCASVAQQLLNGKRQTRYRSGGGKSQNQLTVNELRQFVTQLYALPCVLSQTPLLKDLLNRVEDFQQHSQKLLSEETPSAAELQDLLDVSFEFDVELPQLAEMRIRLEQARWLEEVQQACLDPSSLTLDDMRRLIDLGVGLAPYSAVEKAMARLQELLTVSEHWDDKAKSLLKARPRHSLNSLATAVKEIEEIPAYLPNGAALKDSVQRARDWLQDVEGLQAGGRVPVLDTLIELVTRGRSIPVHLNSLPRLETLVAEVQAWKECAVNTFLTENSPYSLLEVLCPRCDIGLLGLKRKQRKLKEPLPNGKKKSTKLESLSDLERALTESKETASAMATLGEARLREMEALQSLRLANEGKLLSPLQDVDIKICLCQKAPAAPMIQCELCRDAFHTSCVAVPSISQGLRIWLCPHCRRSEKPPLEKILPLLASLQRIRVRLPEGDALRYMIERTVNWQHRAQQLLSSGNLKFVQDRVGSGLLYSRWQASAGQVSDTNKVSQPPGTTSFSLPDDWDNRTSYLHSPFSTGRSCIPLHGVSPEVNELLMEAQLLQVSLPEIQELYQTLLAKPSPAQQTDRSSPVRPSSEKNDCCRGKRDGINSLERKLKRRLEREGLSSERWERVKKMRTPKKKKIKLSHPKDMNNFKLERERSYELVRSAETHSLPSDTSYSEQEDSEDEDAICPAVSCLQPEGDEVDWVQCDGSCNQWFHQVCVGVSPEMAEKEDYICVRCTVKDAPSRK

IC50 [1]: 191 µM | IC50 [2]: 34 µM
Structure (SMILES): Cc1ccsc1C(NC(=O)c1ccccc1)c1cc(Cl)c2cccnc2c1O (racemic)

IC50 [3]: 1 µM
Structure (SMILES): CCN(CCN(C)C)C(=O)CNCc1cc(C(=O)O)ccn1

Structure (SMILES): CCN(CC)CCCCNCc1cc(C=O)ccn1
EC50 [4]: < 0.25 µM | EC50 [5]: < 0.25 µM

IC50 [6]: > 100 µM
Structure (SMILES): CCCCCCCCOC(=O)c1ccc(O)c2ncccc12
